Data published in ChEMBL document CHEMBL3792297, “Studies on phenothiazines: New microtubule-interacting compounds with phenothiazine A-ring as potent antineoplastic agents” (Bioorg Med Chem, 2016).

Assays:
[1] = Growth inhibition of human SKOV3 cells at 10 uM after 48 hrs by SRB assay relative to control; format: functional; details: SK-OV-3, 48 h, read-out: GI
[2] = Growth inhibition of human HCT116 cells at 10 uM after 48 hrs by SRB assay relative to control; format: functional; details: HCT-116, 48 h, read-out: GI
[3] = Growth inhibition of human PC3 cells at 10 uM after 48 hrs by SRB assay relative to control; format: functional; details: PC-3, 48 h, read-out: GI
[4] = Growth inhibition of human IGROV1 cells at 10 uM after 48 hrs by SRB assay relative to control; format: functional; details: IGROV-1, 48 h, read-out: GI
SK-MEL-28 = assay: Growth inhibition of human SK-MEL-28 cells at 10 uM after 48 hrs by SRB assay relative to control; format: functional; details: SK-MEL-28, 48 h, read-out: GI
[5] = Growth inhibition of human Hs 578T cells at 10 uM after 48 hrs by SRB assay relative to control; format: functional; details: read-out: GI
[6] = Growth inhibition of human TK10 cells at 10 uM after 48 hrs by SRB assay relative to control; format: functional; details: TK-10, 48 h, read-out: GI
[7] = Growth inhibition of human SF295 cells at 10 uM after 48 hrs by SRB assay relative to control; format: functional; details: SF-295, 48 h, read-out: GI
[8] = Growth inhibition of human RPMI8226 cells at 10 uM after 48 hrs by SRB assay relative to control; format: functional; details: RPMI-8226, 48 h, read-out: GI
[9] = Growth inhibition of human SF268 cells at 10 uM after 48 hrs by SRB assay relative to control; format: functional; details: SF-268, 48 h, read-out: GI
MDA-MB-468 = assay: Growth inhibition of human MDA-MB-468 cells at 10 uM after 48 hrs by SRB assay relative to control; format: functional; details: MDA-MB-468, 48 h, read-out: GI
NCI-H460 = assay: Growth inhibition of human NCI-H460 cells at 10 uM after 48 hrs by SRB assay relative to control; format: functional; details: NCI-H460, 48 h, read-out: GI
CCRF-CEM = assay: Growth inhibition of human CCRF-CEM cells at 10 uM after 48 hrs by SRB assay relative to control; format: functional; details: read-out: GI
MDA-MB-231 = assay: Growth inhibition of human MDA-MB-231 cells at 10 uM after 48 hrs by SRB assay relative to control; format: functional; details: MDA-MB-231, 48 h, read-out: GI
[10] = Growth inhibition of human RXF393 cells at 10 uM after 48 hrs by SRB assay relative to control; format: functional; details: RXF 393, 48 h, read-out: GI
[11] = Growth inhibition of human COLO205 cells at 10 uM after 48 hrs by SRB assay relative to control; format: functional; details: COLO 205, 48 h, read-out: GI
MCF7 = assay: Growth inhibition of human MCF7 cells at 10 uM after 48 hrs by SRB assay relative to control; format: functional; details: MCF7, 48 h, read-out: GI
EKVX = assay: Growth inhibition of human EKVX cells at 10 uM after 48 hrs by SRB assay relative to control; format: functional; details: read-out: GI
[12] = Growth inhibition of human UO31 cells at 10 uM after 48 hrs by SRB assay relative to control; format: functional; details: UO-31, 48 h, read-out: GI
HT-29 = assay: Growth inhibition of human HT-29 cells at 10 uM after 48 hrs by SRB assay relative to control; format: functional; details: HT-29, 48 h, read-out: GI
[13] = Growth inhibition of human OVCAR4 cells at 10 uM after 48 hrs by SRB assay relative to control; format: functional; details: OVCAR-4, 48 h, read-out: GI
786-0 = assay: Growth inhibition of human 786-0 cells at 10 uM after 48 hrs by SRB assay relative to control; format: functional; details: 786-0, 48 h, read-out: GI
[14] = Growth inhibition of human SNB75 cells at 10 uM after 48 hrs by SRB assay relative to control; format: functional; details: SNB-75, 48 h, read-out: GI
[15] = Growth inhibition of human LOXIMVI cells at 10 uM after 48 hrs by SRB assay relative to control; format: functional; details: LOX IMVI, read-out: GI
SR = assay: Growth inhibition of human SR cells at 10 uM after 48 hrs by SRB assay relative to control; format: functional; details: read-out: GI
Ovis aries = species on record: Ovis aries; assay: Inhibition of sheep brain tubulin polymerization at 100 uM by DAPI staining-based fluorimetric method
[16] = Growth inhibition of human UACC62 cells at 10 uM after 48 hrs by SRB assay relative to control; format: functional; details: UACC-62, 48 h, read-out: GI
A498 = assay: Growth inhibition of human A498 cells at 10 uM after 48 hrs by SRB assay relative to control; format: functional; details: A498, 48 h, read-out: GI
NCI-H322M = assay: Growth inhibition of human NCI-H322M cells at 10 uM after 48 hrs by SRB assay relative to control; format: functional; details: read-out: GI
NCI-H226 = assay: Growth inhibition of human NCI-H226 cells at 10 uM after 48 hrs by SRB assay relative to control; format: functional; details: NCI-H226, 48 h, read-out: GI
SN12C = assay: Growth inhibition of human SN12C cells at 10 uM after 48 hrs by SRB assay relative to control; format: functional; details: read-out: GI
MDA-MB-435 = assay: Growth inhibition of human MDA-MB-435 cells at 10 uM after 48 hrs by SRB assay relative to control; format: functional; details: MDA-MB-435, 48 h, read-out: GI
[17] = Growth inhibition of human Caki1 cells at 10 uM after 48 hrs by SRB assay relative to control; format: functional; details: CAKI-1, 48 h, read-out: GI
NCI-H522 = assay: Growth inhibition of human NCI-H522 cells at 10 uM after 48 hrs by SRB assay relative to control; format: functional; details: NCI-H522, 48 h, read-out: GI
[18] = Growth inhibition of human HL-60(TB) cells at 10 uM after 48 hrs by SRB assay relative to control; format: functional; details: HL-60, 48 h, read-out: GI
SK-MEL-2 = assay: Growth inhibition of human SK-MEL-2 cells at 10 uM after 48 hrs by SRB assay relative to control; format: functional; details: SK-MEL-2, 48 h, read-out: GI
[19] = Growth inhibition of human DU145 cells at 10 uM after 48 hrs by SRB assay relative to control; format: functional; details: DU-145, 48 h, read-out: GI
[20] = Growth inhibition of human OVCAR8 cells at 10 uM after 48 hrs by SRB assay relative to control; format: functional; details: OVCAR-8, 48 h, read-out: GI
[21] = Growth inhibition of human UACC257 cells at 10 uM after 48 hrs by SRB assay relative to control; format: functional; details: UACC-257, 48 h, read-out: GI

| Compound | inhibition of growth at 10 µM [1] | inhibition of growth at 10 µM [2] | inhibition of growth at 10 µM [3] | inhibition of growth at 10 µM [4] | inhibition of growth at 10 µM (SK-MEL-28) | inhibition of growth at 10 µM [5] | inhibition of growth at 10 µM [6] | inhibition of growth at 10 µM [7] | inhibition of growth at 10 µM [8] | inhibition of growth at 10 µM [9] | inhibition of growth at 10 µM (MDA-MB-468) | inhibition of growth at 10 µM (NCI-H460) | inhibition of growth at 10 µM (CCRF-CEM) | inhibition of growth at 10 µM (MDA-MB-231) | inhibition of growth at 10 µM [10] | inhibition of growth at 10 µM [11] | inhibition of growth at 10 µM (MCF7) | inhibition of growth at 10 µM (EKVX) | inhibition of growth at 10 µM [12] | inhibition of growth at 10 µM (HT-29) | also measured |
| --- | --- | --- | --- | --- | --- | --- | --- | --- | --- | --- | --- | --- | --- | --- | --- | --- | --- | --- | --- | --- | --- |
| O=C(c1ccc(F)c(Cl)c1)N1c2ccccc2Sc2ccccc21 | 11% | 69% | 60% | 29% | 38% | 21% | 15% | 36% | 47% | 33% | 37% | 1% | 42% | 39% | 29% | 55% | 49% | 26% | 27% | 64% | inhibition of growth at 10 µM [13]: 20%; inhibition of growth at 10 µM (786-0): 20%; inhibition of growth at 10 µM [14]: 31%; inhibition of growth at 10 µM [15]: 59%; inhibition of growth at 10 µM (SR): 66%; inhibition (Ovis aries): 42%; inhibition of growth at 10 µM [16]: 74%; inhibition of growth at 10 µM (A498): 38%; inhibition of growth at 10 µM (NCI-H322M): 0%; inhibition of growth at 10 µM (NCI-H226): 23%; inhibition of growth at 10 µM (SN12C): 1%; inhibition of growth at 10 µM (MDA-MB-435): 92%; inhibition of growth at 10 µM [17]: 47%; inhibition of growth at 10 µM (NCI-H522): 57%; inhibition of growth at 10 µM [18]: 69%; inhibition of growth at 10 µM (SK-MEL-2): 35%; inhibition of growth at 10 µM [19]: 10%; inhibition of growth at 10 µM [20]: 10%; inhibition of growth at 10 µM [21]: 39% |
| COc1ccc(C(=O)N2c3ccccc3Sc3ccccc32)c(F)c1 | 62% | 80% | 70% | 45% | 41% | 84% | 55% | 91% | 81% | 47% | 100% | 88% | 83% | 47% | 100% | 92% | 76% | 56% | 51% | 95% | inhibition of growth at 10 µM [13]: 51%; inhibition of growth at 10 µM (786-0): 77%; inhibition of growth at 10 µM [14]: 100%; inhibition of growth at 10 µM [15]: 60%; inhibition of growth at 10 µM (SR): 77%; inhibition (Ovis aries): 75%; inhibition of growth at 10 µM [16]: 77%; inhibition of growth at 10 µM (A498): 98%; inhibition of growth at 10 µM (NCI-H322M): 56%; inhibition of growth at 10 µM (NCI-H226): 54%; inhibition of growth at 10 µM (SN12C): 39%; inhibition of growth at 10 µM (MDA-MB-435): 100%; inhibition of growth at 10 µM [17]: 55%; inhibition of growth at 10 µM (NCI-H522): 99%; inhibition of growth at 10 µM [18]: 85%; inhibition of growth at 10 µM [19]: 95%; inhibition of growth at 10 µM [20]: 68%; inhibition of growth at 10 µM [21]: 33% |
